Laboratory results reported in patent publication US11448654B2, “Protein-protein interaction assessed by detecting localized coiled coil subunits” (The Regents of the University of California, priority 2017, dated 2022).

Columns and labels:
[1] = tested on: protein kinase A (PKA) activity; experiment: PKA-SPARK phase separation kinase reporter in HEK293 cells; format: cell-based, human; conditions: for effect of pre-incubation on isoprenaline-induced droplet formation / PKA-SPARK signal: HEK293 cells, pre-incubation before isoprenaline
Text: To design a SPARK-based PKA, reporter (named PKA-SPARK), a consensus peptide sequence was utilized that is specifically phosphorylated by PKA, as described in Durocher et al., (2000). The molecular basis of FHA domain: phosphopeptide binding specificity and implications for phospho-dependent signaling mechanisms. Mol Cell 6, 1169-1182. To introduce PKA activity-dependent PPI, forkhead-associated domain 1 (FHA1) was sued, which is a phosphothreonine binding domain. […] These two fusion sequences were connected by a “self-cleaving” 2A sequence. The rationale was that substrate and the FHA1 would induce PKA activity-dependent protein-protein interaction, the two HOTags introduce multivalency; and upon PKA activation, multivalent protein-protein interactions would be induced, leading to phase separation and formation of EGFP droplets.
To test the construct, the β-adrenergic agonist isoprenaline was added to HEK293 cells that endogenously express β-adrenergic receptors (βAR). βAR activation induces GDP for GTP exchange in the heteratrimeric G protein Gs, and GTP-bound Gαs activates adenylyl cyclase (AC), which converts ATP into cAMP that activates PKA. […] In order to confirm that the phase separation results from phosphorylation of PKA-SPARK at the expected threonine residue, we changed the threonine to alanine in the PKA substrate sequence.
Next it was tested whether phase separation of the reporter is reversible, i.e. whether the EGFP droplets would disassemble or dissolve when PKA is inactivated. Cells were pre-incubated with isoprenaline to induce phase separation, then isoprenaline was removed and H89 added to inactivate PKA. […] As a control, the EGFP droplets were stable over time in the cells with removal of isoprenaline but addition of medium without H89. […] To examine whether PKA-SPARK could quantitatively measure the droplets' disassembly over time after PKA inhibition, we defined “SPARK signal” as the sum of fluorescent droplets' pixel intensity divided by sum of cells' pixel intensity. Upon addition of H89, the SPARK signal decreased over time. In contrast, for the control the SPARK signal remained constant over time.
Time-lapse fluorescence imaging of PKA-SPARK was performed at 10 seconds per frame. […] PKA activation upon addition of isoprenaline was confirmed by AKAR2 reporter. Small droplets of PKA-SPARK were detected as early as at 20 seconds upon addition of isoprenaline. The quick activation of PKA is consistent with rapid activation of the βAR-cAMP-PKA pathway. The small droplets grew quickly and coalesced into large and intensively fluorescent droplets, which were up to 10-fold brighter than the cellular fluorescence before PKA activation. […] Therefore, PKA-SPARK achieves up to 10-fold fluorescence increase, compared to prior art AKAR2 and PKA-KTR reporters, which have ˜10% and ˜30% fluorescence ratio change, respectively. […] The results also verified that PKA-SPARK could detect PKA activity over a wide range of reporter expression. Lastly the concentration of PKA-SPARK (2-10 μM) appeared to have no effect on kinetics of droplet assembly and disassembly.
In additional experiments, PKA was activated via the G-coupled GPCR βAR. Isoprenaline was added to activate endogenous βARs in HEK293 cells.

[2] = biological target: T1, interaction between CRBN and GSPT1 (Homo sapiens, UniProt P15170+Q96SW2); experiment: SPARK reporter CRBN-EGFP-HOTag3 / GSPT1-HOTag6 in HEK293 cells; format: cell-based; conditions: time-lapse imaging
T1 construct: expressed in transfected cells; host or cells: HEK293
T1 sequence (Q96SW2 whole entry): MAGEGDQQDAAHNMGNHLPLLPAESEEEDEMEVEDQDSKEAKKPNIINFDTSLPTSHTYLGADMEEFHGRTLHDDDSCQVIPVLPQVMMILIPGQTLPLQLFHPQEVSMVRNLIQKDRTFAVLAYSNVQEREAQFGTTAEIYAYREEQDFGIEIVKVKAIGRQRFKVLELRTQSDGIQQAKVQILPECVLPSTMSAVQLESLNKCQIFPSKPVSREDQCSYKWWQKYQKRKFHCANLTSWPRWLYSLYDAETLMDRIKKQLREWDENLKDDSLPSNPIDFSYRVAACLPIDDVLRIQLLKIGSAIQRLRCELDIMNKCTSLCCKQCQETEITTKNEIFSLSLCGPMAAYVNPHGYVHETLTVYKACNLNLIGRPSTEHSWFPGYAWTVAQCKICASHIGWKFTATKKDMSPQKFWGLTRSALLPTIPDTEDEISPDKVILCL
T1 sequence (P15170 whole entry): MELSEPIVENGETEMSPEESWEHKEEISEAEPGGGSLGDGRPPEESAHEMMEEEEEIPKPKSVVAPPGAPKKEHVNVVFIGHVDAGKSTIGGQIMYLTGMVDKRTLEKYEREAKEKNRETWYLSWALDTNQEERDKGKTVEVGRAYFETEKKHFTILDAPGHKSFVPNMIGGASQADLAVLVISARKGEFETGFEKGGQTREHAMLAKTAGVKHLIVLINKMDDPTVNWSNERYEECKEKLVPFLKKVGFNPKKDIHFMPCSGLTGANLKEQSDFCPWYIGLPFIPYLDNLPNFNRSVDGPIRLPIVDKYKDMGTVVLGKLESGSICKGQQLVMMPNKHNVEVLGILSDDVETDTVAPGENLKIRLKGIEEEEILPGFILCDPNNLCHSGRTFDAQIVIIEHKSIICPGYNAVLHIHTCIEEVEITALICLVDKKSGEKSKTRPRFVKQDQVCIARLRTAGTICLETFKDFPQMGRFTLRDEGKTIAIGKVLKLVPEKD
Text: Many analogs and derivatives of IMiDs have recently been designed and explored as drug leads. […] To examine whether SPARK can detect CC-885 induced protein-protein interactions, HOTag6 was genetically fused to GSPT1 and co-expressed with CRBN-EGFP-HOTag3 in HEK293 cells. […] Thus, SPARK also detects CC-885 induced protein-protein interactions.

PKA activity = experiment: PKA-SPARK in zebrafish embryo muscle cells; format: in vivo; conditions: 24 hrs APF, upon addition of isoprenaline
ERK activity = experiment: ERK-SPARK phase separation kinase reporter in HEK293 cells; conditions: for effect of pre-incubation on phase separation of ERK-SPARK upon addition of EGF: HEK293 cells, pre-incubation before EGF
Text: To determine whether the SPARK design generalizes, the highly conserved kinase ERK was utilized in a second pair of reporter fusion proteins. To design a SPARK-based ERK reporter (ERK-SPARK), the ERK activity-sensing motifs that were used for previous FRET-based ERK reporters were employed. One of the ERK activity-sensing motifs is a phosphopeptide sequence from Cdc25C, followed by an ERK-specific docking site that determines substrate specificity. The companion fragment is a WW domain that binds the phosphorylated substrate. The ERK substrate sequence was fused to EGFP followed by HOTag3, and the WW domain was fused to EGFP followed by HOTag6. The two fusions were connected by a “self-cleaving” 2A sequence. The pair of reporter fusion proteins was expressed in HEK293 cells exposed to epidermal growth factor (EGF). EGF binds the EGF receptor, resulting in ERK activation. […] Because the ERK docking site was previously shown to be critical for ERK recognition and binding to substrate, a reporter lacking the 4-amino-acid docking site was generated.
To investigate whether ERK-SPARK could detect GPCR-induced ERK activity, a hexapeptide full agonist for protease-activated receptor-1 was added to HEK293 cells.

Q: With `COc1ccccc1OCCNCC(O)COc1cccc2[nH]c3ccccc3c12` (centres unmarked) [carvedilol] as the compound, how does the “effect of pre-incubation on isoprenaline-induced droplet formation / PKA-SPARK signal” value [1] read?
A: The value was “abolished the sustained PKA-SPARK signals”.

Q: For `Cc1ccc(NC(=O)NCc2ccc3c(c2)CN(C2CCC(=O)NC2=O)C3=O)cc1Cl` (centres unmarked) [CC-885], which “droplet formation (punctal green fluorescence) upon addition” value [2] is on record?
A: The value was “intensely bright and punctal green fluorescence”.

Q: For `O=S(=O)(NCCNC/C=C/c1ccc(Br)cc1)c1cccc2cnccc12` [H89], which “effect of pre-incubation on isoprenaline-induced droplet formation / PKA-SPARK signal” value [1] is on record?
A: The value was “abolished isoprenaline-induced droplet formation”.

Q: What about the “EGFP droplet disassembly when PKA is inactivated” value ([1]; cells pre-incubated with isoprenaline, isoprenaline removed, H89 added) of the same compound?
A: The value was “EGFP droplets disassembled rapidly”.

Q: `CC(C)NCC(O)c1ccc(O)c(O)c1` (centres unmarked) [isoprenaline] was tested. Which “persistence of EGFP droplets (sustained PKA activity)” value ([1]; endogenous βARs in HEK293 cells) did it give?
A: Its value is “at least 3 hrs”.

Q: What about the “fluorescent droplet formation upon addition of βAR agonist” value ([1]; reporter-expressing HEK293 cells) of the same compound?
A: Its value is “fluorescent droplets formed”.

Q: What about the “earliest detection of small PKA-SPARK droplets after addition” value ([1]; time-lapse imaging at 10 seconds per frame) of the same compound?
A: Its value is 20 s.

Q: And the “EGFP droplet formation in muscle cells” value (PKA activity)?
A: The value was “EGFP droplet formation”.

Q: “EGF: epidermal growth factor; binds the EGF receptor, resulting in ERK activation (NSDSECPLSHDGYCLHDGVCMYIEALDKYACNCVVGYIGERCQYRDLKWWELR; UniProt P01133 971-1023, looked up)” was tested. Which “EGFP droplet formation upon addition of stimulus” value (ERK activity; ERK-SPARK expressing HEK293 cells) did it give?
A: Its value is “EGFP droplets formed”.

Q: Which “effect of pre-incubation on phase separation of ERK-SPARK upon addition of EGF” value (ERK activity) does the source give for `C[S+]([O-])c1ccc(-c2nc(-c3ccncc3)c(-c3ccc(F)cc3)[nH]2)cc1` (centres unmarked) [SB 203580] here?
A: The value was “did not abolish formation of EGFP droplets”.

Q: How did the “effect of pre-incubation on phase separation of ERK-SPARK upon addition of EGF” value (ERK activity) turn out when `O=C(NOC[C@H](O)CO)c1ccc(F)c(F)c1Nc1ccc(I)cc1F` [PD 0325901] was run?
A: Its value is “abolished phase separation”.
